Reference: US6204293A, “Inhibitors of protein isoprenyl transferases” (University of Pittsburgh, priority 1998, dated 2001)
Where a name gives a salt, the structure may show the parent alone. Read-outs that look alike come from different tables or passages of the source. One block for each compound: values may come before it.

Target: T1, Rat brain protein farnesyltransferase (Rattus norvegicus, UniProt Q02293+Q04631)
T1 construct: Rat brain protein farnesyltransferase activity is measured; from tissue; host or cells: rat brain
Test: % inhibition of farnesylation, scintillation proximity assay with biotin-K Ras B fragment
Type: biochemical
Details: for % inhibition at 1 × 10^-5 M: Table 1; for inhibition at 1 µM: read-out: % inhibition at 1 × 10^-6 M; for % inhibition at 1 × 10^-7 M: Table 3
Description: The ability of the compounds of the invention to inhibit protein farnesyltransferase or protein geranylgeranyltransferase can be measured according to the method of Moores, et al., J. Biol. Chem. 266: 14603 (1991) or the method of Vogt, et al., J. Biol. Chem. 270:660-664 (1995). In addition, procedures for determination of the inhibition of farnesylation of the oncogene protein Ras are described by Goldstein, et al., J. Biol. Chem., 266:15575-15578 (1991) and by Singh in U.S. Pat. No. 5,245,061.
In addition, in vitro inhibition of protein farnesyltransferase may be measured by the following procedure. Rat brain protein farnesyltransferase activity is measured using an Amersham Life Science commercial scintillation proximity assay kit and substituting a biotin-K Ras B fragment (biotin-[…]CO2 H), 0.1 mM final concentration, for the biotin-lamin substrate provided by Amersham. The enzyme is purified according to Reiss, Y., et al., Cell, 62: 81-88 (1990), utilizing steps one through three.
The % inhibition of protein farnesyltransferase was determined for representative compounds of the invention.

[1] = read-out: % inhibition at 1 × 10^-7 M
[2] = read-out: % inhibition at 0.1 μM (*), Table 6, * footnote 0.1 μM (title: 0.1 mM)
[3] = read-out: % inhibition at 1 × 10^-8 M, Table 4, 1 × 10^-8 M

T1 sequence (Q02293 whole entry, one chain of several): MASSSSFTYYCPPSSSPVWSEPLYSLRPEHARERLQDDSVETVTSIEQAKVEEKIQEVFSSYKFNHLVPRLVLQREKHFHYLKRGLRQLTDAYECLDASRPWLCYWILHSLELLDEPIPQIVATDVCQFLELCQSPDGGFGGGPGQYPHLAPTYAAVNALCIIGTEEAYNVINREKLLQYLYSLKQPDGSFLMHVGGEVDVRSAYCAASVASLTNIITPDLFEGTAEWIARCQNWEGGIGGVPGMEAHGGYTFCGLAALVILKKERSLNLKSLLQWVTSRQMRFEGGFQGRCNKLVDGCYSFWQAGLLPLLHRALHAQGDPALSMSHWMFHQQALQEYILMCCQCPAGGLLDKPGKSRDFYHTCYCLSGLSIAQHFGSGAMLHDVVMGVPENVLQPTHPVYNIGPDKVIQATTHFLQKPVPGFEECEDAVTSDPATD

Structure (SMILES): CSCC[C@H](NC(=O)c1ccc(COCc2ccc(-c3cccc(F)c3)o2)cc1-c1ccccc1C)C(=O)O [Example 436, N-[4-(5-(3-fluorophenyl)furan-2-ylmethoxymethyl)-2-(2-methylphenyl)benzoyl]methionine lithium salt]
inhibition at 0.1 µM [1]: 89%

Structure (SMILES): CSCC[C@H](NC(=O)c1ccc(COCc2ccc(Br)o2)cc1-c1ccccc1C)C(=O)O [Example 434, N-[4-(5-Bromofuran-2-ylmethoxymethyl)-2-(2-methylphenyl)benzoyl]methionine lithium salt]
inhibition at 0.1 µM [1]: 93%

% inhibition at 1 × 10^-6 M (Table 2, 1 × 10^-6 M): 21%
Structure (SMILES): CSCC[C@H](NC(=O)c1ccc(NCC(CO)(Cc2ccccc2)Cc2ccccc2)cc1-c1ccccc1C)C(=O)O [Example 475]

Structure (SMILES): CSCC[C@H](NC(=O)c1ccc(CCCc2ccc3ccccc3c2)cc1-c1ccccc1C)C(=O)[O-].[Li+] [Example 470]
% inhibition at 1 × 10^-6 M (Table 2, 1 × 10^-6 M): 95%

% inhibition at 1 × 10^-6 M (Table 2, 1 × 10^-6 M): 63%
Structure (SMILES): CSCC[C@H](NC(=O)c1ccc(CN(C2CC2)C(C)(C)CC2CCCCC2)cc1-c1ccccc1C)C(=O)O [Example 316]

inhibition at 0.1 µM [2]: 84%
Structure (SMILES): CSCC[C@H](NC(=O)c1ccc(COC(c2ccccc2)C2CCN(S(=O)(=O)c3ccccc3)CC2)cc1-c1ccccc1C)C(=O)O (some centres unmarked) [Example 1252, N-[4-(1-(4-(N-phenylsulfonyl)piperidinyl)benzyloxymethyl-2-(2-methylphenyl)benzoyl]methioninelithium salt]

% inhibition at 1 × 10^-6 M (Table 2, 1 × 10^-6 M): 97%
Structure (SMILES): CSCC[C@H](NC(=O)c1ccc(NC[C@@H]2CSCN2)cc1-c1ccccc1)C(=O)O.Cl [Example 166]

% inhibition at 1 × 10^-6 M (Table 2, 1 × 10^-6 M): 22%
Structure (SMILES): CCCCN(C)N(CCC1CCCCC1)Cc1ccc(C(=O)N[C@@H](CCS(C)(=O)=O)C(=O)O)c(-c2ccccc2C)c1 [Example 300]

% inhibition at 1 × 10^-5 M: 69%
Structure (SMILES): CCn1cc(NCc2ccc(C(=O)N[C@@H](CCSC)C(=O)O)c(-c3ccccc3)c2)c(=O)n1CC [Example 364]

% inhibition at 1 × 10^-6 M (Table 2, 1 × 10^-6 M): 98%
Structure (SMILES): CSCC[C@H](NC(=O)c1ccc(CN(C2CC2)C2(CC3CCCCC3)CCC2)cc1-c1ccccc1C)C(=O)O [Example 330]

% inhibition at 1 × 10^-8 M (Table 4, 1 × 10^-8 M): 88%
Structure (SMILES): CCSC[C@H](CC1CCCCC1)N(C)Cc1ccc(C(=O)N[C@@H](CCSC)C(=O)O)c(-c2ccccc2C)c1 [Example 944]

% inhibition at 1 × 10^-8 M (Table 4, 1 × 10^-8 M): 69%
Structure (SMILES): CSCC[C@H](NC(=O)c1ccc(CN2CCC[C@H]2COc2ccccc2)cc1-c1ccccc1C)C(=O)O [Example 991]

Structure (SMILES): CSCC[C@H](NC(=O)c1ccc(CSCc2ccccc2C)cc1-c1ccccc1C)C(=O)O [Example 557, N-[4-(2-methylbenzyl)thiomethyl-2-(2-methylphenyl)benzoyl]methionine, lithium salt]
inhibition at 1 µM: 93%

% inhibition at 1 × 10^-6 M (Table 2, 1 × 10^-6 M): 99%
Structure (SMILES): CCSC[C@H](CC1CCCCC1)NCc1ccc(C(=O)N[C@@H](CCSC)C(=O)O)c(-c2ccccc2C)c1 [Example 403]

inhibition at 0.01 µM [3]: 89%
Structure (SMILES): CCCCC(OCc1ccc(C(=O)N[C@@H](CCSC)C(=O)O)c(-c2ccccc2C)c1)c1cncs1 (some centres unmarked) [Example 985]

Structure (SMILES): CSCC[C@H](NC(=O)c1ccc(OCCOC2CCCCC2)cc1-c1ccccc1C)C(=O)O [Example 565, N-[4-(2-cyclohexyloxy)ethoxy-2-(2-methylphenyl)benzoyl]methionine, lithium salt]
inhibition at 1 µM: 94%

inhibition at 1 µM (Table 2, 1 × 10^-6 M): 98%
Structure (SMILES): CSCC[C@H](NC(=O)c1ccc(CSc2nc3ccccc3s2)cc1-c1ccccc1C)C(=O)O [Example 323, [4-(2-benzothiazolylthiomethyl)-2-(2-methylphenyl)benzoyl]methionine]

% inhibition at 1 × 10^-5 M: 87%
Structure (SMILES): CSCC[C@H](NC(=O)c1ccc(CNCCc2cccs2)cc1-c1ccccc1)C(=O)O [Example 369]

% inhibition at 1 × 10^-6 M (Table 2, 1 × 10^-6 M): 98%
Structure (SMILES): Cc1ccccc1-c1cc(CN(C2CC2)C(C)(C)Cc2ccccc2)ccc1C(=O)N[C@@H](CCS(C)(=O)=O)C(=O)O [Example 319]

Structure (SMILES): CSCC[C@H](NC(=O)c1ccc(CN(Cc2ccccc2)c2ccccc2[N+](=O)[O-])cc1-c1ccccc1C)C(=O)[O-].[Li+] [Example 849]
% inhibition at 1 × 10^-7 M: 66%

% inhibition at 1 × 10^-5 M: 48%
Structure (SMILES): CSCC[C@H](NC(=O)c1ccc(CNc2cccc(Oc3ccccc3)c2)cc1-c1ccccc1)C(=O)O [Example 686]

inhibition at 0.01 µM (read-out: % inhibition at 0.01 μM (**), Table 6, ** footnote 0.01 μM (title: 0.01 mM)): 85%
Structure (SMILES): CSCC[C@H](NC(=O)c1ccc(CO[C@@H](CC2CCCCC2)C(=O)N2CC[S+]([O-])CC2)cc1-c1ccccc1C)C(=O)O [Example 1055, N-[4-(3-cyclohexyl-N-thiomorpholin-S-oxide-4-ylpropion-2-yloxymethyl)-2-(2-methylphenyl)benzoyl]methionine, lithium salt]

% inhibition at 1 × 10^-6 M (Table 2, 1 × 10^-6 M): 18%
Structure (SMILES): CSCC[C@H](NC(=O)c1ccc(NC(=O)Cc2nccs2)cc1-c1ccccc1)C(=O)O [Example 163]

% inhibition at 1 × 10^-6 M (Table 2, 1 × 10^-6 M): 94%
Structure (SMILES): CSCC[C@H](NC(=O)c1ccc(CN(CCC2CCCCC2)C(=O)N(C)C)cc1-c1ccccc1C)C(=O)O [Example 610]

% inhibition at 1 × 10^-5 M: 74%
Structure (SMILES): CSCC[C@H](NC(=O)c1ccc(CNc2ccc(C(C)C)cc2)cc1-c1ccccc1)C(=O)O [Example 692]

% inhibition at 1 × 10^-6 M (Table 2, 1 × 10^-6 M): 39%
Structure (SMILES): CSCC[C@H](NC(=O)c1ccc(CNc2ccc(N3CCCCC3)cc2)cc1-c1ccccc1)C(=O)O [Example 697]

inhibition at 1 µM (Table 2, 1 × 10^-6 M): 94%
Structure (SMILES): CSCC[C@H](NC(=O)c1ccc(COCc2ccco2)cc1-c1ccccc1C)C(=O)O [Example 299, [4-(2-furylmethyloxymethyl)-2-(2-methylphenyl)benzoyl]methionine]

% inhibition at 1 × 10^-7 M: 97%
Structure (SMILES): CSCC[C@H](NC(=O)c1ccc(CNC(Cc2ccccc2)Cc2ccccc2)cc1-c1ccccc1C)C(=O)O [Example 523]

% inhibition at 1 × 10^-6 M (Table 2, 1 × 10^-6 M): 88%
Structure (SMILES): CSCC[C@H](NC(=O)c1ccc(C[C@H]2CC[C@@H](c3ccccc3)CC2)cc1-c1ccccc1C)C(=O)O [Example 790]

inhibition at 0.1 µM [2]: 86%
Structure (SMILES): CCCC[C@@H](COCc1ccc(C(=O)N[C@@H](CCSC)C(=O)O)c(-c2ccccc2C)c1)CC1CCCCC1 [Example 1315, N-[4-(2-Cyclohexylmethylhex-1-yloxymethyl)-2-(2-methylphenyl)benzoyl]methionine Lithium Salt]

inhibition at 0.01 µM [3]: 83%
Structure (SMILES): CSCC[C@H](NC(=O)c1ccc(CO[C@H](CSC(C)(C)C)Cc2ccccc2)cc1-c1ccccc1C)C(=O)O [Example 994, N-[4-(1-t-butylthio-3-phenylprop-2-oxymethyl)-2-(2-methylphenyl)benzoyl]methionine]

inhibition at 0.1 µM [2]: 69%
Structure (SMILES): CCCCC(OCc1ccc(C(=O)N[C@@H](CCSC)C(=O)O)c(-c2ccccc2C)c1)C1CCOCC1 (some centres unmarked) [Example 1282, N-[4-(1-(4-tetrahydropyranyl)pentyloxymethyl-2-(2-methylphenyl)benzoyl]methioninelithium salt]

% inhibition at 1 × 10^-6 M (Table 2, 1 × 10^-6 M): 99%
Structure (SMILES): CSCC[C@H](NC(=O)c1ccc(CN(C(C)C)C2(Cc3ccccc3)CC2)cc1-c1ccccc1C)C(=O)O [Example 325]

% inhibition at 1 × 10^-5 M: 43%
Structure (SMILES): CSCC[C@H](NC(=O)c1ccc(CNCCC2CCCCC2)cc1-c1ccccc1)C(=O)O [Example 663]

% inhibition at 1 × 10^-7 M: > 50%
Structure (SMILES): CSCC[C@H](NC(=O)c1ccc(NC[C@@H]2C[C@H](S)CN2)cc1-c1ccccc1)C(=O)O [Example 959]

% inhibition at 1 × 10^-6 M (Table 2, 1 × 10^-6 M): 98%
Structure (SMILES): CSCC[C@H](NC(=O)c1ccc(CN(C(C)C)C2(Cc3ccccc3)CCC2)cc1-c1ccccc1C)C(=O)O [Example 331]

Structure (SMILES): CSCC[C@H](NC(=O)c1ccc(COCc2ccc(-c3ccc(SC)cc3)o2)cc1-c1ccccc1C)C(=O)O [Example 447, N-[4-(5-(4-methylthiophenyl)furan-2-ylmethoxymethyl)-2-(2-methylphenyl)benzoyl]methionine lithium salt]
inhibition at 0.1 µM [1]: 91%

% inhibition at 1 × 10^-6 M (Table 2, 1 × 10^-6 M): 41%
Structure (SMILES): CSCC[C@H](NC(=O)c1ccc(S(=O)(=O)NC2CCN(Cc3ccccc3)CC2)cc1-c1ccccc1C)C(=O)O [Example 773]

inhibition at 1 µM (Table 2, 1 × 10^-6 M): 94%
Structure (SMILES): CSCC[C@H](NC(=O)c1ccc(COCc2ccoc2)cc1-c1ccccc1C)C(=O)O [Example 530, N-[4-(furan-3-ylmethoxymethyl)-2-(2-methylphenyl)benzoyl]methionine litihium salt]

Structure (SMILES): CCCCOCC(CC1CCCCC1)OCc1ccc(C(=O)N[C@@H](CCSC)C(=O)O)c(-c2ccccc2C)c1 (some centres unmarked) [Example 1308, N-[4-(3-Cyclohexyl-1-butoxyprop-2-yloxymethyl)-2-(2-methylphenyl)benzoyl]methionine Lithium Salt]
inhibition at 0.01 µM (read-out: % inhibition at 0.01 μM (**)): 91%

% inhibition at 1 × 10^-8 M (Table 4, 1 × 10^-8 M): 85%
Structure (SMILES): CSCC[C@H](NC(=O)c1ccc(CN(Cc2ccccc2)c2cccc(Cl)c2)cc1-c1ccccc1C)C(=O)O [Example 847]

inhibition at 0.01 µM [3]: 94%
Structure (SMILES): CSCC[C@H](NC(=O)c1ccc(CO[C@H](CSc2ccccc2)CC2CCCCC2)cc1-c1ccccc1C)C(=O)O [Example 884, N-[4-(3-Cyclohexyl-1-phenylthiopropan-2-yl)oxymethyl-2-(2-methylphenyl)benzoyl]methionine lithium salt]

% inhibition at 1 × 10^-8 M (Table 4, 1 × 10^-8 M): 95%
Structure (SMILES): C=C[C@H](CC1CCCCC1)NCc1ccc(C(=O)N[C@@H](CCSC)C(=O)O)c(-c2ccccc2C)c1 [Example 619]

% inhibition at 1 × 10^-6 M (Table 2, 1 × 10^-6 M): 26%
Structure (SMILES): CSCC[C@H](NC(=O)c1ccc(NC(=O)OCCCl)cc1-c1ccccc1)C(=O)O [Example 979]
